Molecular target: PLK1 (Homo sapiens, UniProt P53350)
Test: PLK1 protein kinase assay (CDC25C phosphorylation, [γ-32P]-ATP)
Type: biochemical
Details: Table 2, PLK1 IC50; class symbols; read-out: PLK1 IC50

PLK1, sequence (P53350 whole entry): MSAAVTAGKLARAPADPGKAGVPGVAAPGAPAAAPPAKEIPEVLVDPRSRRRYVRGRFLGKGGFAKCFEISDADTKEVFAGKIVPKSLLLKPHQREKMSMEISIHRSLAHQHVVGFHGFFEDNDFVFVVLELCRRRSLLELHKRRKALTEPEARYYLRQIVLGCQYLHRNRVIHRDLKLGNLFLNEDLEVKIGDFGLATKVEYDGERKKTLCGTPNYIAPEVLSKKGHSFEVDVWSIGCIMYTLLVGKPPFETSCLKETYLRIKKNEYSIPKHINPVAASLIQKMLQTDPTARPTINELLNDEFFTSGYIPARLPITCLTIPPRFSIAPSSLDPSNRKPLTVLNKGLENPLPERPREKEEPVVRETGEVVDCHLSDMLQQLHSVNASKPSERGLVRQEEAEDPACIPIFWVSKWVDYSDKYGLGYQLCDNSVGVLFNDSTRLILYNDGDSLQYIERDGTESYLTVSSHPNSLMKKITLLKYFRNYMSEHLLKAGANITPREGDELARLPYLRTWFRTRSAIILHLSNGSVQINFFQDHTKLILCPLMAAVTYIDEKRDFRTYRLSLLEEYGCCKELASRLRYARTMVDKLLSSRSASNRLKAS

## COc1ccc(C(=O)NC2CCN(C)CC2)cc1Nc1ncc2c(n1)N(C1CCCC1)CCC(=O)N2C [compound 143, 3-(9-Cyclopentyl-5-methyl-6-oxo-6,7,8,9-tetrahydro-5H-pyrimido[4,5-b][1,4]diazepin-2-ylamino)-4-methoxy-N-(1-methyl-piperidin-4-yl)-benzamide]
  IC50: < 1000 nM

## CNC(=O)c1ccc(OC)c(Nc2ncc3c(n2)N(C2CCCC2)CCC(=O)N3C)c1 [compound 144, 3-(9-Cyclopentyl-5-methyl-6-oxo-6,7,8,9-tetrahydro-5H-pyrimido[4,5-b][1,4]diazepin-2-ylamino)-4-methoxy-N-methyl-benzamide]
  IC50: < 1000 nM

## COc1ccc(C(=O)NCCO)cc1Nc1ncc2c(n1)N(C1CCCC1)CCC(=O)N2C [compound 145, 3-(9-Cyclopentyl-5-methyl-6-oxo-6,7,8,9-tetrahydro-5H-pyrimido[4,5-b][1,4]diazepin-2-ylamino)-N-(2-hydroxy-ethyl)-4-methoxy-benzamide]
  IC50: < 1000 nM

## COc1cc(C(=O)N(C)CCCN(C)C)ccc1Nc1ncc2c(n1)N(C1CCCC1)CCC(=O)N2C [compound 147, 4-(9-Cyclopentyl-5-methyl-6-oxo-6,7,8,9-tetrahydro-5H-pyrimido[4,5-b][1,4]diazepin-2-ylamino)-N-(3-dimethylamino-propyl)-3-methoxy-N-methyl-benzamide]
  IC50: < 1000 nM

## CCN(CC)CCNC(=O)c1ccc(Nc2ncc3c(n2)N(C2CCCC2)CCC(=O)N3C)c(OC)c1 [compound 148, 4-(9-Cyclopentyl-5-methyl-6-oxo-6,7,8,9-tetrahydro-5H-pyrimido[4,5-b][1,4]diazepin-2-ylamino)-N-(2-diethylamino-ethyl)-3-methoxy-benzamide]
  IC50: < 100 nM

## COc1cc(C(=O)NCCCN(C)C)ccc1Nc1ncc2c(n1)N(C1CCCC1)CCC(=O)N2C [compound 149, 4-(9-Cyclopentyl-5-methyl-6-oxo-6,7,8,9-tetrahydro-5H-pyrimido[4,5-b][1,4]diazepin-2-ylamino)-N-(3-dimethylamino-propyl)-3-methoxy-benzamide]
  IC50: < 1000 nM

## COc1cc(C(=O)N[C@H]2c3ccccc3C[C@H]2O)ccc1Nc1ncc2c(n1)N(C1CCCC1)CCC(=O)N2C [compound 150, 4-(9-Cyclopentyl-5-methyl-6-oxo-6,7,8,9-tetrahydro-5H-pyrimido[4,5-b][1,4]diazepin-2-ylamino)-N-((1S,2R)-2-hydroxy-indan-1-yl)-3-methoxy-benzamide]
  IC50: < 1000 nM

## COc1cc(C(=O)N[C@@H](CO)C(C)C)ccc1Nc1ncc2c(n1)N(C1CCCC1)CCC(=O)N2C [compound 152, 4-(9-Cyclopentyl-5-methyl-6-oxo-6,7,8,9-tetrahydro-5H-pyrimido[4,5-b][1,4]diazepin-2-ylamino)-N-((R)-1-hydroxymethyl-2-methyl-propyl)-3-methoxy-benzamide]
  IC50: < 1000 nM

## CCC(CO)NC(=O)c1ccc(Nc2ncc3c(n2)N(C2CCCC2)CCC(=O)N3C)c(OC)c1 (centres unmarked) [compound 153, 4-(9-Cyclopentyl-5-methyl-6-oxo-6,7,8,9-tetrahydro-5H-pyrimido[4,5-b][1,4]diazepin-2-ylamino)-N-(1-hydroxymethyl-propyl)-3-methoxy-benzamide]
  IC50: < 1000 nM

## COc1cc(C(=O)NCC(C)O)ccc1Nc1ncc2c(n1)N(C1CCCC1)CCC(=O)N2C (centres unmarked) [compound 154, 4-(9-Cyclopentyl-5-methyl-6-oxo-6,7,8,9-tetrahydro-5H-pyrimido[4,5-b][1,4]diazepin-2-ylamino)-N-(2-hydroxy-propyl)-3-methoxy-benzamide]
  IC50: < 1000 nM

## COc1cc(C(=O)NC(C)(C)CN2CCCC2)ccc1Nc1ncc2c(n1)N(C1CCCC1)CCC(=O)N2C [compound 155, 4-(9-Cyclopentyl-5-methyl-6-oxo-6,7,8,9-tetrahydro-5H-pyrimido[4,5-b][1,4]diazepin-2-ylamino)-N-(1,1-dimethyl-2-pyrrolidin-1-yl-ethyl)-3-methoxy-benzamide]
  IC50: < 1000 nM

## COc1cc(C(=O)NC(C)(C)CN2CCCCC2)ccc1Nc1ncc2c(n1)N(C1CCCC1)CCC(=O)N2C [compound 156, 4-(9-Cyclopentyl-5-methyl-6-oxo-6,7,8,9-tetrahydro-5H-pyrimido[4,5-b][1,4]diazepin-2-ylamino)-N-(1,1-dimethyl-2-piperidin-1-yl-ethyl)-3-methoxy-benzamide]
  IC50: < 100 nM

## COc1cc(C(=O)NC2CCN(Cc3ccccc3)CC2)ccc1Nc1ncc2c(n1)N(C1CCCC1)CCC(=O)N2C [compound 157, N-(1-Benzyl-piperidin-4-yl)-4-(9-cyclopentyl-5-methyl-6-oxo-6,7,8,9-tetrahydro-5H-pyrimido[4,5-b][1,4]diazepin-2-ylamino)-3-methoxy-benzamide]
  IC50: < 100 nM

## COc1cc(C(=O)NCC2CCN(C)CC2)ccc1Nc1ncc2c(n1)N(C1CCCC1)CCC(=O)N2C [compound 158, 4-(9-Cyclopentyl-5-methyl-6-oxo-6,7,8,9-tetrahydro-5H-pyrimido[4,5-b][1,4]diazepin-2-ylamino)-3-methoxy-N-(1-methyl-piperidin-4-ylmethyl)-benzamide]
  IC50: < 100 nM

## COc1cc(C(=O)NCCCO)ccc1Nc1ncc2c(n1)N(C1CCCC1)CCC(=O)N2C [compound 159, 4-(9-Cyclopentyl-5-methyl-6-oxo-6,7,8,9-tetrahydro-5H-pyrimido[4,5-b][1,4]diazepin-2-ylamino)-N-(3-hydroxy-propyl)-3-methoxy-benzamide]
  IC50: < 1000 nM

## COc1cc(C(=O)NN2CCN(C)CC2)ccc1Nc1ncc2c(n1)N(C1CCCC1)CCC(=O)N2C [compound 160, 4-(9-Cyclopentyl-5-methyl-6-oxo-6,7,8,9-tetrahydro-5H-pyrimido[4,5-b][1,4]diazepin-2-ylamino)-3-methoxy-N-(4-methyl-piperazin-1-yl)-benzamide]
  IC50: < 100 nM

## COc1cc(C(=O)NC2CN3CCC2CC3)ccc1Nc1ncc2c(n1)N(C1CCCC1)CCC(=O)N2C (centres unmarked) [compound 161, N-(1-Aza-bicyclo[2.2.2]oct-3-yl)-4-(9-cyclopentyl-5-methyl-6-oxo-6,7,8,9-tetrahydro-5H-pyrimido[4,5-b][1,4]diazepin-2-ylamino)-3-methoxy-benzamide]
  IC50: < 100 nM

## COc1cc(C(=O)NC2CC(C)(C)N(C)C(C)(C)C2)ccc1Nc1ncc2c(n1)N(C1CCCC1)CCC(=O)N2C [compound 162, 4-(9-Cyclopentyl-5-methyl-6-oxo-6,7,8,9-tetrahydro-5H-pyrimido[4,5-b][1,4]diazepin-2-ylamino)-3-methoxy-N-(1,2,2,6,6-pentamethyl-piperidin-4-yl)-benzamide]
  IC50: < 100 nM

## COc1cc(C(=O)NC2CCCN(C)C2)ccc1Nc1ncc2c(n1)N(C1CCCC1)CCC(=O)N2C (centres unmarked) [compound 163, 4-(9-Cyclopentyl-5-methyl-6-oxo-6,7,8,9-tetrahydro-5H-pyrimido[4,5-b][1,4]diazepin-2-ylamino)-3-methoxy-N-(1-methyl-piperidin-3-yl)-benzamide]
  IC50: < 100 nM

## CCC(O)CNC(=O)c1ccc(Nc2ncc3c(n2)N(C2CCCC2)CCC(=O)N3C)c(OC)c1 (centres unmarked) [compound 164, 4-(9-Cyclopentyl-5-methyl-6-oxo-6,7,8,9-tetrahydro-5H-pyrimido[4,5-b][1,4]diazepin-2-ylamino)-N-(2-hydroxy-butyl)-3-methoxy-benzamide]
  IC50: < 1000 nM

## COc1cc(C(=O)NCC(C)(C)CN(C)C)ccc1Nc1ncc2c(n1)N(C1CCCC1)CCC(=O)N2C [compound 165, 4-(9-Cyclopentyl-5-methyl-6-oxo-6,7,8,9-tetrahydro-5H-pyrimido[4,5-b][1,4]diazepin-2-ylamino)-N-(3-dimethylamino-2,2-dimethyl-propyl)-3-methoxy-benzamide]
  IC50: < 100 nM

## COc1cc(C(=O)NCCO)ccc1Nc1ncc2c(n1)N(C1CCCC1)CCC(=O)N2C [compound 166, 4-(9-Cyclopentyl-5-methyl-6-oxo-6,7,8,9-tetrahydro-5H-pyrimido[4,5-b][1,4]diazepin-2-ylamino)-N-(2-hydroxy-ethyl)-3-methoxy-benzamide]
  IC50: < 1000 nM

## COc1cc(C(=O)N(CCO)CCO)ccc1Nc1ncc2c(n1)N(C1CCCC1)CCC(=O)N2C [compound 167, 4-(9-Cyclopentyl-5-methyl-6-oxo-6,7,8,9-tetrahydro-5H-pyrimido[4,5-b][1,4]diazepin-2-ylamino)-N,N-bis-(2-hydroxy-ethyl)-3-methoxy-benzamide]
  IC50: < 10000 nM

## COc1cc(C(=O)NCCOCCO)ccc1Nc1ncc2c(n1)N(C1CCCC1)CCC(=O)N2C [compound 168, 4-(9-Cyclopentyl-5-methyl-6-oxo-6,7,8,9-tetrahydro-5H-pyrimido[4,5-b][1,4]diazepin-2-ylamino)-N-[2-(2-hydroxy-ethoxy)-ethyl]-3-methoxy-benzamide]
  IC50: < 1000 nM

## CONC(=O)c1ccc(Nc2ncc3c(n2)N(C2CCCC2)CCC(=O)N3C)c(OC)c1 [compound 169, 4-(9-Cyclopentyl-5-methyl-6-oxo-6,7,8,9-tetrahydro-5H-pyrimido[4,5-b][1,4]diazepin-2-ylamino)-3,N-dimethoxy-benzamide]
  IC50: < 1000 nM

## CCN(CC)CCNC(=O)c1ccc(Nc2ncc3c(n2)N(C2CCCC2)CC2(CC2)C(=O)N3C)c(OC)c1 [compound 182, 4-(9-Cyclopentyl-5-methyl-6-oxo-6,7,8,9-tetrahydro-5H-spiro[pyrimido[4,5-b][1,4]diazepin-3,1′-cyclopropane]-2-ylamino)-N-(2-diethylamino-ethyl)-3-methoxy-benzamide]
  IC50: < 100 nM

## COc1cc(C(=O)NCCCN(C)C)ccc1Nc1ncc2c(n1)N(C1CCCC1)CC1(CC1)C(=O)N2C [compound 183]
  IC50: < 100 nM

## COc1cc(C(=O)NCCCCO)ccc1Nc1ncc2c(n1)N(C1CCCC1)CC1(CC1)C(=O)N2C [compound 185, 4-(9-Cyclopentyl-5-methyl-6-oxo-6,7,8,9-tetrahydro-5H-spiro[pyrimido[4,5-b][1,4]diazepin-3,1′-cyclopropane]-2-ylamino)- -N-(4-hydroxy-butyl)-3-methoxy-benzamide]
  IC50: < 100 nM

## COc1cc(C(=O)NC2CCCN(C)C2)ccc1Nc1ncc2c(n1)N(C1CCCC1)CC1(CC1)C(=O)N2C (centres unmarked) [compound 187, 4-(9-Cyclopentyl-5-methyl-6-oxo-6,7,8,9-tetrahydro-5H-spiro[pyrimido[4,5-b][1,4]diazepin-3,1-cyclopropane]-2-ylamino)-3-methoxy-N-(1-methyl-piperidin-3-yl)-benzamide]
  IC50: < 100 nM
